Data: patent publication US20070179060A1, “6-(Poly-substituted aryl)-4-aminopicolinates and their use as herbicides” (priority 2006, published 2007)

Tests used:
Galium aparine = experiment: Postemergence herbicidal safening in cereal crops; assay type: in vivo; details: Table 5, applied alone, after 3 weeks
Experimental: (§1) Seeds of the desired test plant species were planted in Sun Gro MetroMix® 306 planting mixture, which typically has a pH of 6.0 to 6.8 and an organic matter content of about 30 percent, in plastic pots with a surface area of 103.2 square centimeters. When required to ensure good germination and healthy plants, a fungicide treatment and/or other chemical or physical treatment was applied. The plants were grown for 7-36 days in a greenhouse with an approximate 14 hour photoperiod which was maintained at about 18° C. during the day and 17° C. during the night. Nutrients and water were added on a regular basis and supplemental lighting was provided with overhead metal halide 1000-Watt lamps as necessary. The plants were employed for testing when they reached the second or third true leaf stage. Treatments consisted of compound 42 and cloquintocet-mexyl alone and in combination. Weighed amounts were placed in 25 mL glass vials and dissolved in a volume of 97:3 v/v acetone/DMSO to obtain 9 mg ai/mL stock solutions. […] A dilution solution was prepared by mixing 1 volume of 97:3 v/v acetone/DMSO and 2 volumes of an aqueous mixture containing acetone, water, isopropyl alcohol, DMSO, Agri-dex crop oil concentrate, and Triton® X-77 surfactant in a 64.7:26.0:6.7:2.0:0.7:0.01 v/v ratio. Compound requirements are based upon a 12 mL application volume at a rate of 187 L/ha. […] Formulated compounds were applied to the plant material with an overhead Mandel track sprayer equipped with a […] nozzles calibrated to deliver 187 L/ha over an application area of 0.503 square meters at a spray height of 18 inches (43 cm) above average plant canopy height. Control plants were sprayed in the same manner with the solvent blank. The treated plants and control plants were placed in a greenhouse as described above and watered by sub-irrigation to prevent wash-off of the test compounds. After 3 weeks the condition of the test plants as compared with that of the untreated plants was determined visually and scored on a scale of 0 to 100 percent where 0 corresponds to no injury and 100 corresponds to complete kill. Colby's equation was used to determine the herbicidal effects expected from the mixtures (Colby, S. R. 1967. Calculation of the synergistic and antagonistic response of herbicide combinations. Weeds 15:20-22.). The following equation was used to calculate the expected activity of mixtures containing two active ingredients, A and B: Expected=A+B-(A×B/100) • A=observed efficacy of active ingredient A at the same concentration as used in the mixture. • B=observed efficacy of active ingredient B at the same concentration as used in the mixture.

[1] = test system: Hordeum vulgare (winter barley); experiment: Postemergence herbicidal safening in cereal crops; assay type: in vivo; details: Table 5, applied alone, after 3 weeks
Experimental: as §1

[2] = test system: Triticum aestivum (spring wheat); experiment: Postemergence herbicidal safening in cereal crops; assay type: in vivo; details: Table 5, applied alone, after 3 weeks
Experimental: as §1

Papaver rhoeas = experiment: Postemergence herbicidal safening in cereal crops; assay type: in vivo; details: Table 5, applied alone, after 3 weeks
Experimental: as §1

[3] = test system: lambsquarter (Chenopodium album); experiment: Preemergence herbicidal activity; assay type: in vivo; details: Chenopodium album, pre-emergence, 480 h; pre-emergent, 140 g ai/ha, after 20-22 days; read-out: % Control CHEAL
Summary of the method: (§2)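 Seeds sown in 70:30 loam (pH about 8.1, about 1.5% organic matter) and sand mix, then sprayed preemergence at 187 L/ha with a track sprayer; controls received solvent blank. Pots kept in greenhouse, about 15 h photoperiod, about 23-29° C. day and 22-28° C. night, top-irrigated.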

[4] = test system: velvetleaf (Abutilon theophrasti); experiment: Preemergence herbicidal activity; assay type: in vivo; details: Abutilon theophrasti, pre-emergence, 480 h; pre-emergent, 140 g ai/ha, after 20-22 days; read-out: % Control ABUTH
Summary of the method: as §2

[5] = test system: redroot pigweed (Amaranthus retroflexus); experiment: Preemergence herbicidal activity; assay type: in vivo; details: Amaranthus retroflexus, pre-emergence, 480 h; pre-emergent, 140 g ai/ha, after 20-22 days; read-out: % Control AMARE
Summary of the method: as §2

[6] = test system: lambsquarter (Chenopodium album); experiment: Postemergence herbicidal activity; assay type: in vivo; details: Chenopodium album, post-emergence, 336 h, post-emergent, 140 g ai/ha, after 14 days; read-out: % Control CHEAL
Summary of the method: (§3)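 Plants grown 7-21 days in greenhouse (about 15 h photoperiod, 23-29° C day, 22-28° C night) to first or second true leaf stage. Compounds in acetone/water/isopropanol/DMSO carrier with crop oil concentrate and Triton X-155 sprayed overhead at 187 L/ha; controls received solvent blank. Plants sub-irrigated afterwards; dose responses analysed by probit analysis.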

[7] = test system: velvetleaf (Abutilon theophrasti); experiment: Postemergence herbicidal activity; assay type: in vivo; details: Abutilon theophrasti, post-emergence, 336 h, post-emergent, 140 g ai/ha, after 14 days; read-out: % Control ABUTH
Summary of the method: as §3

[8] = test system: redroot pigweed (Amaranthus retroflexus); experiment: Postemergence herbicidal activity; assay type: in vivo; details: Amaranthus retroflexus, post-emergence, 336 h, post-emergent, 140 g ai/ha, after 14 days; read-out: % Control AMARE
Summary of the method: as §3

Matricaria chamomilla = experiment: Postemergence herbicidal activity of mixtures in cereal crops; assay type: in vivo; details: Table 6, applied alone, 35 g ai/ha, after 3 weeks
Experimental: (§4) Seeds of the desired test plant species were planted and reared as described in “Evaluation of Postemergence Herbicidal Safening in Cereal Crops” (section 37).
(§5) Treatments consisted of compound (as listed in Tables 6 and 7), fluroxypyr methylheptyl ester (MHE), and clopyralid monoethanolamine (MEA) salt alone and in combination. Weighed amounts were placed in 25 mL glass vials and dissolved in a volume of 97:3 v/v acetone/DMSO to obtain 4.5 mg ai/mL stock solutions. […] The concentrated stock solutions were diluted to 1.5 mg ai/mL with the addition of 2 volumes of an aqueous mixture containing acetone, water, isopropyl alcohol, DMSO, Agri-dex crop oil concentrate, and Triton® X-77 surfactant in a 64.7:26.0:6.7:2.0:0.7:0.01 v/v ratio. A dilution solution was prepared by mixing 1 volume of 97:3 v/v acetone/DMSO and 2 volumes of an aqueous mixture containing acetone, water, isopropyl alcohol, DMSO, Agri-dex crop oil concentrate, and Triton® X-77 surfactant in a 64.7:26.0:6.7:2.0:0.7:0.01 v/v ratio. Compound requirements are based upon a 12 mL application volume at a rate of 187 L/ha. Spray solutions of fluroxypyr MHE, clopyralid MEA, and experimental compound mixtures were prepared by adding the stock solutions to the appropriate amount of dilution solution to form 12 mL spray solution with active ingredients in two- and three-way combinations. Formulated compounds were applied to the plant material with an overhead Mandel track sprayer equipped with a 8002E nozzles calibrated to deliver 187 L/ha over an application area of 0.503 square meters at a spray height of 18 inches (43 cm) above average plant canope. Control plants were sprayed in the same manner with the solvent blank.
(§6) The treated plants and control plants were placed in a greenhouse as described above and watered by sub-irrigation to prevent wash-off of the test compounds. After 3 weeks the condition of the test plants as compared with that of the control plants was determined visually and scored on a scale of 0 to 100 percent where 0 corresponds to no injury and 100 corresponds to complete kill.
(§7) Colby's equation was used to determine the herbicidal effects expected from the mixtures (Colby, S. R. 1967. Calculation of the synergistic and antagonistic response of herbicide combinations. Weeds 15:20-22.).
(§8) The following equation was used to calculate the expected activity of mixtures containing two active ingredients, A and B: Expected=A+B−(A×B/100) • A=observed efficacy of active ingredient A at the same concentration as used in the mixture. • B=observed efficacy of active ingredient B at the same concentration as used in the mixture.
(§9) The following equation was used to calculate the expected activity of mixtures containing three active ingredients, A, B, and C: Expected=A+B+C−(A×B+B×C+A×C)/100+(A×B×C)/10000 • A=observed efficacy of active ingredient A at the same concentration as used in the mixture. • B=observed efficacy of active ingredient B at the same concentration as used in the mixture. • C=observed efficacy of active ingredient C at the same concentration as used in the mixture.

[9] = test system: Hordeum vulgare (winter barley); experiment: as above; assay type: in vivo; details: Table 6, applied alone, 35 g ai/ha, after 3 weeks
Experimental: as §4, §5, §6, §7, §8, §9

[10] = test system: Triticum aestivum (spring wheat); experiment: as above; assay type: in vivo; details: Table 6, applied alone, 35 g ai/ha, after 3 weeks
Experimental: as §4, §5, §6, §7, §8, §9

| melting point | Structure (SMILES) | pest or weed control at 140 g/ha [3] | pest or weed control at 140 g/ha [4] | pest or weed control at 140 g/ha [5] | pest or weed control at 140 g/ha [6] | pest or weed control at 140 g/ha [7] | pest or weed control at 140 g/ha [8] | % Control MATCH Ob (Matricaria chamomilla) | % Control HORVW Ob [9] | % Control TRZAS Ob [10] | further results |
| --- | --- | --- | --- | --- | --- | --- | --- | --- | --- | --- | --- |
|  | CCCCCC(C)OC(=O)COc1ccc(Cl)c2cccnc12 (stereo not drawn) [Cloquintocetmexyl, cloquintocet-mexyl] |  |  |  |  |  |  |  |  |  | % Control GALAP Ob (Galium aparine; 35 g ai/ha): 0%; % Control GALAP Ob (Galium aparine; 70 g ai/ha): 0%; % Control GALAP Ob (Galium aparine; 140 g ai/ha): 0%; % Control GALAP Ob (Galium aparine; 280 g ai/ha): 0%; % Control HORVW Ob ([1]; 35 g ai/ha): 0%; % Control HORVW Ob ([1]; 70 g ai/ha): 0%; % Control HORVW Ob ([1]; 140 g ai/ha): 0%; % Control HORVW Ob ([1]; 280 g ai/ha): 0%; % Control TRZAS Ob ([2]; 35 g ai/ha): 0%; % Control TRZAS Ob ([2]; 70 g ai/ha): 0%; % Control TRZAS Ob ([2]; 140 g ai/ha): 0%; % Control TRZAS Ob ([2]; 280 g ai/ha): 0%; % Control PAPRH Ob (Papaver rhoeas; 35 g ai/ha): 0%; % Control PAPRH Ob (Papaver rhoeas; 70 g ai/ha): 0%; % Control PAPRH Ob (Papaver rhoeas; 140 g ai/ha): 0%; % Control PAPRH Ob (Papaver rhoeas; 280 g ai/ha): 0% |
| 167 to 168 °C | COc1c(C)cc(F)c(-c2cc(N)c(Cl)c(C(=O)O)n2)c1F [Compound 93, 4-Amino-3-chloro-6-(2,6-difluoro-3-methoxy-4-methylphenyl)pyridine-2-carboxylic acid] | 100% | 100% | 100% | 100% | 100% | 100% | 45% | 10% | 15% |  |
| 145 to 146 °C | COC(=O)c1nc(-c2ccc(F)c(OC)c2Cl)cc(N)c1Cl [Compound 74, 4-Amino-3-chloro-6-(2-chloro-4-fluoro-3-methoxyphenyl)pyridine-2-carboxylic acid, methyl ester] | 95% | 100% | 95% | 100% | 100% | 90% | 10% | 0% | 25% |  |
